Reference: patent US11773078B2, “Furin inhibitors” (Glaxosmithkline Intellectual Property Development Limited, priority 2018, dated 2023)
Counter-ions that a name gives are not always drawn.

Experiments:
[1] = target: T1, furin (endogenous protease) in U20S cells (Homo sapiens, UniProt P09958); assay: Furin cell-based assay (image-based, Golgi-targeted GFP with BMP10 furin/PCSK cleavage site); details: 24-hour incubation, read-out: furin golgi cell pXC50 (converted);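 further: Read-out is mean GFP fluorescence of Golgi puncta per cell by high-content imaging, retained when furin inhibited, over an eleven-point 0.00017–10 µM series, four-parameter fit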
T1 construct: the endogenous protease cleaves GFP; endogenous in cells; host or cells: U2OS cells transduced with a BacMam reporter

[2] = target: T2, Furin (108-574-Tev-Flag-His) enzyme (Homo sapiens, UniProt P09958); assay: Furin enzyme assay; type: biochemical; details: for IC50: read-out: furin enzyme pIC50 (converted)
T2 construct: Furin (108-574-Tev-Flag-His) enzyme was expressed and purified from CHO cells; TEV cleavage site (C); FLAG (C); His (C); made in house; host or cells: CHO cells
Summary of the method: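 Compounds ran as 11-point threefold dilutions (0.00017–10 μM final) against 40 pM furin, purified from CHO cells, for 2 h at room temperature. Buffer: 100 mM HEPES pH7.5 with 1 mM CaCl2 and 0.005% Triton X-100. Envision readout. Four-parameter curve gives pXC50.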

T1 sequence (P09958 108-794): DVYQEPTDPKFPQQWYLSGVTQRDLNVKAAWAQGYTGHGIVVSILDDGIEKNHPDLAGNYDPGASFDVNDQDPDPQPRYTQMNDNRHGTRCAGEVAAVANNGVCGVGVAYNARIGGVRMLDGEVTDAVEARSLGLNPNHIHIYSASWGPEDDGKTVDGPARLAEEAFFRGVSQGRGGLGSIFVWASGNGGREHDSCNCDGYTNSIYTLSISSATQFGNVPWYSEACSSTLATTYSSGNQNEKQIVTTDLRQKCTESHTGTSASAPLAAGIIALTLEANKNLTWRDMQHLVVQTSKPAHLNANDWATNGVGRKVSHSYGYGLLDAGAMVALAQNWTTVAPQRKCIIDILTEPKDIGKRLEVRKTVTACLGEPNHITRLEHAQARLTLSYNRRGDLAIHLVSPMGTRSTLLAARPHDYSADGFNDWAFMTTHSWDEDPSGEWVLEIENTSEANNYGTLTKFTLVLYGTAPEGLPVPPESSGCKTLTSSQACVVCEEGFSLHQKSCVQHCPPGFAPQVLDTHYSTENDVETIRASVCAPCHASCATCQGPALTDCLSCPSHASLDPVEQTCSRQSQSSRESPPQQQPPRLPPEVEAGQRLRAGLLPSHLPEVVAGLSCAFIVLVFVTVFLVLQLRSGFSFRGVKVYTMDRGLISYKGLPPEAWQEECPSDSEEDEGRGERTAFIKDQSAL
T2 sequence (P09958 108-574): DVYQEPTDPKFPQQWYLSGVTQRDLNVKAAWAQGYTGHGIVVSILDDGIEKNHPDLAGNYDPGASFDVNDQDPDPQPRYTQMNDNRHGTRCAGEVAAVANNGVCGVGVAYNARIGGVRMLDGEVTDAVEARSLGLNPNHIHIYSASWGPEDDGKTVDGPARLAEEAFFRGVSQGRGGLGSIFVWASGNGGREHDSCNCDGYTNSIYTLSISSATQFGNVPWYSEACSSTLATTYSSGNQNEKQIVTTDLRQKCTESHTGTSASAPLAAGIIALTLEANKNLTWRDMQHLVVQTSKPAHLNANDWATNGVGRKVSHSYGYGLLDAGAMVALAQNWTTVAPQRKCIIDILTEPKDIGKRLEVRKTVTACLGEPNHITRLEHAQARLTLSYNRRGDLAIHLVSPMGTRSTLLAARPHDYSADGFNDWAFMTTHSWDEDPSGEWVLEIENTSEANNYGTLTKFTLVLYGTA

Row | Structure (SMILES) | EC50 [1] [nM] | furin enzyme pIC50 [2] | IC50 [2] [nM]
1 | CCC(=O)NCC1CCN(Cc2cc(Oc3cnc(N4CCN(CCC(C)C(=O)O)CC4)nc3)nc(-c3cc(Cl)cc(Cl)c3)c2)CC1 (stereo not shown) [Example 59, 4-(4-(5-((6-(3,5-dichlorophenyl)-4-((4-(propionamidomethyl)piperidin-1-yl)methyl)pyridin-2-yl)oxy)pyrimidin-2-yl)piperazin-1-yl)-2-methylbutanoic acid] | 6.31 | 8.9 | 
2 | CC(O)CCN1CCN(c2ncc(Oc3cc(CN4CCC(F)CC4)cc(-c4cc(Cl)cc(Cl)c4)n3)cn2)CC1 (stereo not shown) [Example 60, 4-(4-(5-((6-(3,5-dichlorophenyl)-4-((4-fluoropiperidin-1-yl)methyl)pyridin-2-yl)oxy)pyrimidin-2-yl)piperazin-1-yl)butan-2-ol] | 15.8 | 7.6 | 
3 | CC(=O)NCC1CCN(Cc2cc(Oc3cnc(N4CCN(CCC(=O)O)CC4)nc3)nc(-c3cc(Cl)cc(C(F)F)c3)c2)CC1 [Example 61, 3-(4-(5-((4-((4-(acetamidomethyl)piperidin-1-yl)methyl)-6-(3-chloro-5-(difluoromethyl)phenyl)pyridin-2-yl)oxy)pyrimidin-2-yl)piperazin-1-yl)propanoic acid] | 158 | 9.2 | 
4 | COC(=O)NCC1CCN(Cc2cc(Oc3cnc(N4CCN(C)CC4)nc3)nc(-c3cc(Cl)cc(Cl)c3)c2)CC1 [Example 63, Methyl ((1-1(2-(3,5-dichlorophenyl)-6-((2-(4-methylpiperazin-1-yl)pyrimidin-5-yl)oxy)pyridin-4-yl)methyl)piperidin-4-yl)methyl)carbamate, 4 hydrochloride] | 7.94 | 10.8 | 
5 | CC(=O)NCC1CCN(Cc2cc(Oc3cnc(N4CCN(C)CC4)nc3)nc(-c3cc(Cl)cc(Cl)c3)c2)CC1 [Example 64, N-((1-((2-(3,5-dichlorophenyl)-6-((2-(4-methylpiperazin-1-yl)pyrimidin-5-yl)oxy)pyridin-4-yl)methyl)piperidin-4-yl)methyl)acetamide] | 10 | 9.1 | 
6 | COC(=O)NCC1CCN(Cc2cc(Oc3ccc(N4CCN(C)CC4)nc3)nc(-c3cc(Cl)cc(Cl)c3)c2)CC1 [Example 65, methyl ((1-((2-(3,5-dichlorophenyl)-6-((6-(4-methylpiperazin-1-yl)pyridin-3-yl)oxy)pyridin-4-yl)methyl)piperidin-4-yl)methyl)carbamate] | 20 | 8.7 | 
7 | CNC(=O)OCC1CCN(Cc2cc(Oc3cnc(N4CCN(C)CC4)nc3)nc(-c3cc(Cl)cc(Cl)c3)c2)CC1 [Example 66, (1-((2-(3,5-dichlorophenyl)-6-((2-(4-methylpiperazin-1-yl)pyrimidin-5-yl)oxy)pyridin-4-yl)methyl)piperidin-4-yl)methyl methylcarbamate] | 7.94 |  | 1.58
8 | CNC(=O)OCC1CCN(Cc2cc(Oc3ccc(N4CCN(C)CC4)nc3)nc(-c3cc(Cl)cc(Cl)c3)c2)CC1 [Example 67, (1-((2-(3,5-dichlorophenyl)-6-((6-(4-methylpiperazin-1-yl)pyridin-3-yl)oxy)pyridin-4-yl)methyl)piperidin-4-yl)methyl methylcarbamate] | 12.6 | 10.4 | 
9 | CC(=O)NCC1CCN(Cc2cc(Oc3cnc(N4CCN(C)CC4)nc3)cc(-c3cc(Cl)cc(Cl)c3)c2)CC1 [Example 68, N-((1-((3′,5′-dichloro-5-((2-(4-methylpiperazin-1-yl)pyrimidin-5-yl)oxy)-[1,1′-biphenyl]-3-yl)methyl)piperidin-4-yl)methyl)acetamide] | 12.6 | 9.6 | 
10 | CNC(=O)NCC1CCN(Cc2cc(Oc3ccc(N4CCN(C)CC4)nc3)nc(-c3cc(Cl)cc(Cl)c3)c2)CC1 [Example 69, 1-((1-((2-(3,5-dichlorophenyl)-6-((6-(4-methylpiperazin-1-yl)pyridin-3-yl)oxy)pyridin-4-yl)methyl)piperidin-4-yl)methyl)-3-methylurea] | 5.01 | 9.1 | 
11 | CNC(=O)NCC1CCN(Cc2cc(Oc3cnc(N4CCN(C)CC4)nc3)nc(-c3cc(Cl)cc(Cl)c3)c2)CC1 [Example 70, 1-((1-((2-(3,5-dichlorophenyl)-6-((2-(4-methylpiperazin-1-yl)pyrimidin-5-yl)oxy)pyridin-4-yl)methyl)piperidin-4-yl)methyl)-3-methylurea] | 3.98 |  | 0.0316
12 | CC(=O)NCC1CCN(Cc2cc(Oc3cnc(N4CC5CCC(C4)N5C)nc3)nc(-c3cc(Cl)cc(Cl)c3)c2)CC1 [Example 71, N-((1-((2-(3,5-dichlorophenyl)-6-((2-(8-methyl-3,8-diazabicyclo[3.2.1]octan-3-yl)pyrimidin-5-yl)oxy)pyridin-4-yl)methyl)piperidin-4-yl)methyl)acetamide] | 1.58 |  | 0.2
13 | CN1CCN(c2ncc(Oc3cc(CN4CCC(Cc5nnn[nH]5)CC4)cc(-c4cc(Cl)cc(Cl)c4)n3)cn2)CC1 [Example 72, 5-((4-((4-((1H-tetrazol-5-yl)methyl)piperidin-1-yl)methyl)-6-(3,5-dichlorophenyl)pyridin-2-yl)oxy)-2-(4-methylpiperazin-1-yl)pyrimidine] | 10 | 8.8 | 
14 | CNC(=O)OCC1CCN(Cc2cc(Oc3cnc(N4CCNCC4)nc3)nc(-c3cc(Cl)cc(Cl)c3)c2)CC1 [Example 73, (1-((2-(3,5-Dichlorophenyl)-6-((2-(piperazin-1-yl)pyrimidin-5-yl)oxy)pyridin-4-yl)methyl)piperidin-4-yl)methyl methylcarbamate] | 6.31 | 8.9 | 
15 | CNC(=O)OCC1CCN(Cc2cc(Oc3ccc(N4CCNCC4)nc3)nc(-c3cc(Cl)cc(Cl)c3)c2)CC1 [Example 74, (1-((2-(3,5-Dichlorophenyl)-6-((6-(piperazin-1-yl)pyridin-3-yl)oxy)pyridin-4-yl)methyl)piperidin-4-yl)methyl methylcarbamate, 4 hydrochloride] | 6.31 | 8.4 | 
16 | CNC(=O)NCC1CCN(Cc2cc(Oc3cnc(N4CCNCC4)nc3)nc(-c3cc(Cl)cc(Cl)c3)c2)CC1 [Example 75, 1-((1-((2-(3,5-Dichlorophenyl)-6-((2-(piperazin-1-yl)pyrimidin-5-yl)oxy)pyridin-4-yl)methyl)piperidin-4-yl)methyl)-3-methylurea, 4 hydrochloride] | 3.16 | 9.1 | 
17 | COC(=O)NCC1CCN(Cc2cc(Oc3ccc(N4CCNCC4)nc3)nc(-c3cc(Cl)cc(Cl)c3)c2)CC1 [Example 76, Methyl 1(1-((2-(3,5-dichlorophenyl)-6-((6-(piperazin-1-yl)pyridin-3-yl)oxy)pyridin-4-yl)methyl)piperidin-4-yl)methyl)carbamate, 4 hydrochloride] | 10 | 8.4 | 
18 | CNC(=O)OCC1CCN(Cc2cc(Oc3ccc(N4CCN(CCC(=O)O)CC4)nc3)nc(-c3cc(Cl)cc(Cl)c3)c2)CC1 [Example 77, 3-(4-(5-((6-(3,5-Dichlorophenyl)-4-((4-(((methylcarbamoyl)oxy)methyl)piperidin-1-yl)methyl)pyridin-2-yl)oxy)pyridin-2-yl)piperazin-1-yl)propanoic acid, 4 hydrochloride] | 63.1 | 9.1 | 
19 | NC(=O)CCN1CCN(Cc2cc(Oc3cnc(N4CCN(CCC(=O)O)CC4)nc3)nc(-c3cc(Cl)cc(Cl)c3)c2)CC1 [Example 78, 3-(4-(5-((4-((4-(3-Amino-3-oxopropyl)piperazin-1-yl)methyl)-6-(3,5-dichlorophenyl)pyridin-2-yl)oxy)pyrimidin-2-yl)piperazin-1-yl)propanoic acid] | 63.1 | 8 | 
20 | NC(=O)CN1CCN(Cc2cc(Oc3cnc(N4CCN(CCC(=O)O)CC4)nc3)nc(-c3cc(Cl)cc(Cl)c3)c2)CC1 [Example 79, 3-(4-(5-((4-((4-(2-amino-2-oxoethyl)piperazin-1-yl)methyl)-6-(3,5-dichlorophenyl)pyridin-2-yl)oxy)pyrimidin-2-yl)piperazin-1-yl)propanoic acid] | 79.4 | 8.3 | 
21 | CS(=O)(=O)N[C@H]1[C@@H]2CCN(Cc3cc(Oc4cnc(N5CCN(CCC(=O)O)CC5)nc4)nc(-c4cc(Cl)cc(Cl)c4)c3)CC[C@@H]21 [Example 80, 3-(4-(5-((6-(3,5-dichlorophenyl)-4-(((1R,7S,8r)-8-(methylsulfonamido)-4-azabicyclo[5.1.0]octan-4-yl)methyl)pyridin-2-yl)oxy)pyrimidin-2-yl)piperazin-1-yl)propanoic acid] | 7.94 | 9.5 | 
22 | CC(CCN1CCN(c2ncc(Oc3cc(CN4CC[C@@H]5[C@H](CC4)[C@H]5NS(C)(=O)=O)cc(-c4cc(Cl)cc(Cl)c4)n3)cn2)CC1)C(=O)O (stereo partly drawn) [Example 81, 4-(4-(5-((6-(3,5-dichlorophenyl)-4-(((1R,7S,8r)-8-(methylsulfonamido)-4-azabicyclo[5.1.0]octan-4-yl)methyl)pyridin-2-yl)oxy)pyrimidin-2-yl)piperazin-1-yl)-2-methylbutanoic acid] | 6.31 | 9.4 | 
23 | CC(=O)N[C@H]1[C@@H]2CCN(Cc3cc(Oc4cnc(N5CCN(CCC(C)C(=O)O)CC5)nc4)nc(-c4cc(Cl)cc(Cl)c4)c3)CC[C@@H]21 (stereo partly drawn) [Example 82, 4-(4-(5-((4-(((1R,7S,8r)-8-acetamido-4-azabicyclo[5.1.0]octan-4-yl)methyl)-6-(3,5-dichlorophenyl)pyridin-2-yl)oxy)pyrimidin-2-yl)piperazin-1-yl)-2-methylbutanoic acid] | 5.01 | 9.3 | 
